No end group written: not given here.
What was measured:
C2C12 cells [1] = test: Western blot of differentiation markers and myofibrillar proteins; assay type: cell-based
Protocol: To induce C2C12 myotube differentiation, myoblasts were seeded in 6-well plates at 5 × 10^5 cells per well. Once reaching 90% confluency, they were cultured in DMEM supplemented with 2% horse serum (Thermo Fisher Scientific) and 1% penicillin-streptomycin. […] Differentiation was observed using an optical microscope (LEICA, 100×). Myotube morphology (length and diameter) was quantified in ImageJ (NIH) using the same images: myotube length was measured by tracing the long axis of each myotube (end-to-end), and myotube diameter was measured as the short-axis width at three positions along each myotube; the mean of the three width values was recorded as the diameter. For each experimental group, three randomly captured images (fields) were analyzed, and at least 15–20 myotubes per image were quantified under identical imaging settings.
Treated C2C12 cells (5 × 10^5 cells/well) were harvested in lysis buffer (Sigma-Aldrich, 2910) and centrifuged at 12,000 g for 10 min; proteins in the supernatant were collected. Protein concentrations were measured using the BCA Protein Assay Kit (Thermo Fisher Scientific). Each 20 μg sample was separated using 10% SDS–PAGE and transferred onto a polyvinylidene fluoride membrane (Millipore, Burlington, MA, USA). Non-specific binding was blocked with 5% non-fat dry milk for 1 h. The membranes were incubated overnight with primary antibodies: Anti-Myf5 (Abcam, ab125078), Anti-Myf6 (Abcam, ab182842), Anti-MyoD (Santa Cruz, sc-377460), Anti-MyoG (Santa Cruz, sc-52903), Anti-α-actinin (Santa Cruz, sc-17829), Anti-MYH3 (Santa Cruz, sc-53091), Anti-p-mTOR (Ser2448) (CST, #5536), Anti-p-Akt (Ser473) (CST, #9271), Anti-p-p70 S6 Kinase (Thr389) (CST, #9205), Anti-myostatin (Abcam, ab124721), Anti-atrogin-1/MAFbx (Santa Cruz, sc-166806), and Anti-MuRF1 (Santa Cruz, sc-398608). Membranes were then incubated for 1 h with HRP-conjugated secondary antibodies. Blot images were captured with the ECL system (Amersham, UK) and quantified using ImageJ.

[2] = tested on: Fc gamma-tagged myostatin/GDF-8; test: ELISA-based receptor binding assay; set-up: species or system human
Protocol: Plates were washed with PBST and blocked with 3% (w/v) BSA for 2 h at room temperature. They were then incubated for 2 h with Fc gamma-tagged myostatin/GDF-8 (Sino Biological, #50441-M01H) diluted in PBST. After another PBST wash, plates were treated with HRP-linked Anti-IgG Fc gamma (CST, #32935S, 1:1,000) for 2 h. Finally, color was developed with TMB (Sigma, #T0440), the reaction stopped with 1 M H2SO4, and absorbance was measured at 450 nm.

C2C12 cells [3] = test: RT-PCR / RT-qPCR of MRF genes; assay type: cell-based; conditions: Day 3; Myf6, MyoD, MyoG; normalized to GAPDH
Protocol: For RT-PCR, the PCR products were electrophoresed in 1.5% agarose gel containing EtBr at 100 V for 30 min and visualized using a ChemiDocTM XRS imaging system (Bio-Rad, Hercules, CA, USA). RT-qPCR was performed using SYBR Green PCR Master Mix (Applied Biosystems, Foster City, CA, USA) for quantitative analysis. Glyceraldehyde-3-phosphate dehydrogenase (GAPDH) was used as a housekeeping gene for normalization. Relative quantification (RQ) was calculated using the ΔΔCt method, and data were expressed as RQ values by comparing the threshold cycle (Ct) of each target gene to that of GAPDH. The linearity and amplification efficiency of the PCR reactions were evaluated using serial dilutions of cDNA, and all reactions were performed in triplicate. The primer sequences used were as follows: Myf5 forward ([NT]), Myf5 reverse ([NT]), Myf6 forward ([NT]), Myf6 reverse ([NT]), MyoD forward ([NT]), MyoD reverse ([NT]), MyoG forward ([NT]), MyoG reverse ([NT]).

[4] = tested on: patients with muscle atrophy (ICD-10-CM code: M62.5); test: Clinical trial: handgrip strength (hand dynamometer); assay type: in vivo, human
Protocol: The study was conducted at Biosite Research Private Limited (Shanthipura, India) under the New Drugs and Clinical Trials Rules (2019) issued by CDSCO (Ministry of Health and Family Welfare, Government of India), and in compliance with GCP, applicable local regulatory requirements, the Declaration of Helsinki ([…]), ICMR guidelines (2017), and ICH-GCP E6 (R2). Ethical approval was obtained from the Excel Hospital Institutional Ethics Committee (ECR/1670/Inst/TG/2022) and ethics committees of other participating centers, and the trial was prospectively registered (CTRI/2024/01/061919). All participants provided written informed consent prior to any study procedures. Key eligibility criteria included adults aged ≥18 years with low muscle mass by DEXA (men: <7.0 kg/m^2; women: <5.4 kg/m^2) and either low handgrip strength (men: <28 kg; women: <18 kg) or low physical performance (6-m walk speed <1.0 m/s). Major exclusion criteria included uncontrolled systemic disease, musculoskeletal or neurological disorders, recent anabolic steroid use, and concomitant medications known to affect protein metabolism; full inclusion and exclusion criteria are provided in Supplementary Table S1. Of 89 patients screened, seven were screen failures and two withdrew prior to randomization; 80 eligible participants were enrolled and proceeded to the baseline/randomization visit (mean age 38.83 ± 9.91 years; range 23-69). […] The study was double-blind; participants, investigators, and study staff were unaware of treatment allocation throughout the trial. […] Efficacy endpoints were evaluated as changes from baseline to Week 12; efficacy analyses were conducted in the per-protocol population, and safety analyses included all randomized participants who received at least one dose of study product (Supplementary Figure S2). Of 80 randomized participants, 75 completed the study. Statistical analyses were performed using SAS (version 9.4; SAS Institute Inc., Cary, NC, USA). Continuous variables were summarized as N, mean (SD), median, minimum, and maximum, and categorical variables as n (%), with percentages calculated as n/N × 100. Changes from baseline to Week 12 in DEXA-assessed muscle mass, 6-m walk test, and handgrip strength were analyzed using ANCOVA, adjusting for the corresponding baseline value. Least-squares means (LSMs), 95% confidence intervals, and two-sided p-values were reported, with p < 0.05 considered statistically significant.

C2C12 cells [5] = test: Preliminary screening of candidate peptides; assay type: cell-based
From the text: Supplementary Figure 1. […] Western blot images from the screening experiment are shown, and the summary table indicates peptides that met each criterion (O, yes; X, no; –, not determined).

- myostatin binding compared to the control ([2]; Myoki-coated plates, ≥62.5 μM, absorbance 450 nm): more than 150%
Substance: EAEYEHL-OH [Myoki]
- MYH3 protein expression (C2C12 cells [1]; Day 3, Western blot, vs DM): significant increase
- MyoD protein expression (C2C12 cells [1]; Day 3, Western blot, vs DM): significant increase
- MyoG protein expression (C2C12 cells [1]; Day 3, Western blot, vs DM): significant increase
- alpha-actinin protein expression (C2C12 cells [1]; Day 3, Western blot, vs DM): significant increase
- increase in MYH3 expression (C2C12 cells [1]; Day 6, 100 μM, Western blot): 307%
- increase in alpha-actinin expression (C2C12 cells [1]; Day 6, 100 μM, Western blot): 818%
- binding to myostatin ([2]; Myoki coated at 125, 250, 500, and 1,000 μM): directly and concentration-dependently binds to myostatin
- MRF gene expression (mRNA) (C2C12 cells [3]): significant increase
- Hand grip strength test (Left hand), change from baseline to Week 12 (LS mean) ([4]; 200 mg peptide/day oral, N = 38, 95% CI (0.77 to 1.37), placebo 0.81): 1.07 kg
- Hand grip strength test (Right Hand), change from baseline to Week 12 (LS mean) ([4]; 200 mg peptide/day oral, N = 38, 95% CI (0.94 to 1.60), placebo 0.85): 1.27 kg
- Hand grip strength test (Left hand), difference between placebo and treatment (95% CI) ([4]; Week 12, 200 mg/day, ANCOVA, p 0.02): 0.27 kg
- Hand grip strength test (Right Hand), difference between placebo and treatment (95% CI) ([4]; Week 12, 200 mg/day, ANCOVA, p 0.04): 0.43 kg
- myotube differentiation (screening) (C2C12 cells [5]): promoted myotube differentiation
- DEX-induced activation of muscle protein degradation signaling, particularly atrogin-1/MAFbx upregulation (screening) (C2C12 cells [5]; DEX): attenuated
